The values that follow come from US12534465B2, “5H-pyrrolo[3,2-d]pyrimidine-2,4-diamino compounds and antibody conjugates thereof” (SUTRO BIOPHARMA, INC., priority 2019, dated 2026).

Structures are written as SMILES. Where only a bound is given, the exact number is not on record here.

For one series, the target named is T1, human TLR7 (Homo sapiens, UniProt Q9NYK1).
T1 construct: host or cells: HEK293
T1 sequence (Q9NYK1 27-1049): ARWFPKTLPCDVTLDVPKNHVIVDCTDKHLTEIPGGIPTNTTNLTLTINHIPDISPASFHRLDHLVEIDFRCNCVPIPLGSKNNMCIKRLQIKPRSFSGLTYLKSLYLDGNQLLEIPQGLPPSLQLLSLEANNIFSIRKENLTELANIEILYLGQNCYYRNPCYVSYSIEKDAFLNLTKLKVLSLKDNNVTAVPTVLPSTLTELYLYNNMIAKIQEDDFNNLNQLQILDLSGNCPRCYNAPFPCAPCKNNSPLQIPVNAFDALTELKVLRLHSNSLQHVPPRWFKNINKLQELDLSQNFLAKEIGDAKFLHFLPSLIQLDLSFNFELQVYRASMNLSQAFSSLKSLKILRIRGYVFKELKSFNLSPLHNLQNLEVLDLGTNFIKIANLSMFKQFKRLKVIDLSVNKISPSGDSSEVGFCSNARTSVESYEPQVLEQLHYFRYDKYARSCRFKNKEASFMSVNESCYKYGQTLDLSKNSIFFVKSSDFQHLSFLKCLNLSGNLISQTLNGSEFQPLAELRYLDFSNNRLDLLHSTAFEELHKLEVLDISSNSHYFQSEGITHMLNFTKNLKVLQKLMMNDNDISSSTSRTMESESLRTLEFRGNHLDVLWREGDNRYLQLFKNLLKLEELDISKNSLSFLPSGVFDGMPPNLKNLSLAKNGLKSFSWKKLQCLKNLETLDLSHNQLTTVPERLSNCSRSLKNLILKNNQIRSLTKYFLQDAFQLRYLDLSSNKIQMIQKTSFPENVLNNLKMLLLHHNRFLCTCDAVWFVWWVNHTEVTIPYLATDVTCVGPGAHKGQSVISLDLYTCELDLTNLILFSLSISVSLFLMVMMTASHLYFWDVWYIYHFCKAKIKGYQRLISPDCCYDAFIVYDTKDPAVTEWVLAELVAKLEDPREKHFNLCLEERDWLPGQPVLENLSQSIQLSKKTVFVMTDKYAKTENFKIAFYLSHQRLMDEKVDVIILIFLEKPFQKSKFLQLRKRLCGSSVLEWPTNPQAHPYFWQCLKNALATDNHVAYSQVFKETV
Description: HEK293 SEAP reporter assay, TLR panel (Example 10). It counts as cell-based. The following applies: 16 hrs. The text has this: In this example, the activity of the compound 10 to stimulate different human and mouse TLR pathways was investigated on HEK293 cells transfected with inducible SEAP (secreted embryonic alkaline phosphatase) reporter genes and also expressing different human TLRs (TLR2, TLR3, TLR4, TLR5, TLR7, TLR8, TLR9) or mouse TLRs (TLR2, TLR3, TLR4, TLR5, TLR7, TLR8, TLR13).
HEK293 reporter cell lines were purchased from Invivogen and cell lines were maintained in manufacture recommended culture medium with required supplemental antibiotics. On the day of assay, the cells were harvested with Accutase and counted by the Vi-CELL Cell Viability Analyzers. Cells were resuspended in HEK blue detection medium and a total of 10000 cells were seeded in each well of a 384-well flat bottom plate. Serial dilutions of compound 10 and compound 1 was added into treatment wells. Assay plates were cultured at 37° C. in a CO2 incubator for 16 hrs. HEK-Blue™ Detection medium changes to a purple/blue color in the presence of secreted SEAP, which can be detected by spectrophotometry at 620-655 nm. Data was fitted with non-linear regression analysis, using a log(inhibitor) vs. response-variable slope, 3-parameter fit with GraphPad Prism.
A general note: Reporter assays use an easily measured gene product as a stand-in for the process of interest.

Another series has as its system MC38-hFolRα tumors. Description: Anti-tumor activity in mice bearing established MC38-hFolRα tumors. It counts as in vivo, mouse. Conditions: Day 0 and 4; for tumor growth inhibition (TGI): compared to vehicle control on day 10, p<0.0001. The text has this: This example evaluates the response of MC38-hFolRα tumors to treatment with Compound 2, a TLR 7 agonist.
(§1) Female C57BL/6 mice at 9-10 weeks of age were anesthetized with isoflurane and implanted subcutaneously into the right hind flank with 1×10^6 MC38-hFolRα (murine colon adenocarcinoma cells engineered to express hFolRα). Randomization and start of treatment was initiated when the average tumor size was approximately 150 mm^3 (designated as Day 0 post-treatment). Animals received intratumoral (IT) injections of Compound 2 on Day 0 and Day 4 (q4d×2). Compound 2 was dissolved in DMSO and dosing solutions were formulated in PBS. Body weight and tumor size were monitored 3×/week. The primary study endpoint was reached when the mean tumor size of the vehicle control group was >1,200 mm^3.

The nature of series [1]: Body weight / tolerability in MC38-hFolRα tumor-bearing mice. Format: in vivo, mouse. How it is done:
as §1

The next series relates to human PBMCs. The series is described as follows: Cytokine release (ELISA). The following applies: 24 hr, 10 μg/mL LPS-RS. Format: cell-based. As to the method:
(§2) This example evaluates the ability of Compound 10 to induce cytokine release in human PBMCs, cyno PBMCs and mouse splenocytes. Compound 1 and resiquimod:
(§3) Human and cyno PBMCs, mouse splenocytes were isolated as described in previous example. The day of the assay, 300 k of PBMC or splenocytes in 50 μL of culture medium were seeded in 96-well cell culture plates. 50 μl of the test articles (formulated at 2× of starting concentration) were then added into the well. The cell mixtures were co-cultured in the presence of test articles and 10 μg/mL LPS-RS for 24 hr (human PBMCs) or 48 hr (cyno PBMCs and mouse splenocytes). Cytokines released were measured by ELISA using cell culture medium.

The next series has as its system mouse splenocytes. The series is described as follows: Cytokine release (ELISA). It counts as cell-based. The following applies: 48 hr, 10 μg/mL LPS-RS. As to the method: as §2, §3

By EC50 is commonly meant the concentration at which the effect is half-maximal. A low value points to an effect from little substance. In turn, `CCCCCNc1nc(N)nc2ccn(Cc3ccc(CN4CCNCC4)cc3OC)c12` [Compound 1, 5-(2-methoxy-4-(piperazin-1-ylmethyl)benzyl)-N4-pentyl-5H-pyrrolo[3,2-d]pyrimidine-2,4-diamine, reference compound] showed an EC50 on human TLR7 of 2.17 nM.
With `CCCCCNc1nc(N)nc2ccn(Cc3ccc(CN4CC(NC)C4)cc3OC)c12` [Compound 2, 5-(2-methoxy-4-((3-(methylamino)azetidin-1-yl)methyl)benzyl)-N4-pentyl-5H-pyrrolo[3,2-d]pyrimidine-2,4-diamine], the results for the “tumor growth inhibition (TGI)” value with MC38-hFolRα tumors (0.1 mg/kg intratumoral), in the series with MC38-hFolRα tumors (0.5 mg/kg intratumoral) and with MC38-hFolRα tumors (2 mg/kg intratumoral) were 55%, 61% and 80%, respectively. Besides, in the series on MC38-hFolRα tumors (0.1-2 mg/kg intratumoral), the “MC38-hFolRα tumor growth delay” value is recorded as “significantly delayed”. In series [1] (0.1-2 mg/kg intratumoral, Day 0 and 4), the tolerability entry was “well tolerated”. Besides, the “dose-related minimal body weight loss” value in series [1] (FIG. 7A legend, mice bearing MC38-hFolRα tumors) is listed as < 10 % of predose. In addition, the body weight loss entry in series [1] (doses >0.5 mg/kg intratumoral, Day 0 and 4, recovery by approximately Day 7, FIG. 7A) is “approximately 5%”.
Take `CCCCCNc1nc(N)nc2ccn(Cc3ccc(CN4CC5(CNCCO5)C4)cc3OC)c12` [Compound 10, 5-[[2-methoxy-4-(5-oxa-2,8-diazaspiro[3.5]nonan-2-ylmethyl)phenyl]methyl]-N4-pentyl-pyrrolo[3,2-d]pyrimidine-2,4-diamine]: the IL-6 release result with human PBMCs (FIG. 4A) and with mouse splenocytes (FIG. 6A) was “strong” each time. Moreover, the MCP-1 release entry in the series with human PBMCs (FIG. 4B) and with mouse splenocytes (FIG. 6B) was “strong” in each case. Moreover, the IL1Ra release entry with human PBMCs (FIG. 4C) is listed as “strong”. For the same compound, in the series with mouse splenocytes (FIG. 6C), the TNFa release entry is reported as “strong”. Further, the IP-10 release entry in the series with mouse splenocytes (FIG. 6D) was “strong”. The compound further displayed an EC50 at human TLR7 of 11 nM.
